Experimental data from paper PMC5361891 (Journal of chemical information and modeling, 2017).

Legend:
human 5-HT2AR = human 5-HT2AR (Homo sapiens, UniProt P28223); assay: Radioligand binding assay, [3H]-Ketanserin displacement; details: read-out: Ki 5-HT2A; HEK293 cell membranes, 1.0 nM [3H]-Ketanserin, 37 °C 1 h
human 5-HT6R = human 5-HT6R (Homo sapiens, UniProt P50406); assay: Radioligand binding assay, [3H]-LSD displacement; details: read-out: Ki 5-HT6; HEK293 cell membranes, 2 nM [3H]-LSD, 37 °C 1 h
Sequence of human 5-HT6R (P50406 whole entry): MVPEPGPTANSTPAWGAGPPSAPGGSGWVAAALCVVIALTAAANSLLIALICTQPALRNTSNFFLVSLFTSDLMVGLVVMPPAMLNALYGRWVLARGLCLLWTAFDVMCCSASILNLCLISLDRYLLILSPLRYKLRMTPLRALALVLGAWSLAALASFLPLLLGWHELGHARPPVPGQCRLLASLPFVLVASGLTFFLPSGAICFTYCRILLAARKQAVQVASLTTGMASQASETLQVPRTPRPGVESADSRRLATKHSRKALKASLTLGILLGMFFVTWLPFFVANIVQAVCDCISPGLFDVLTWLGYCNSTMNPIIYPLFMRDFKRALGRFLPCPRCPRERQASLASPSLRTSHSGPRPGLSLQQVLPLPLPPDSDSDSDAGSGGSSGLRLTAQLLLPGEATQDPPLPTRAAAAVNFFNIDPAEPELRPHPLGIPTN

human 5-HT7bR = human 5-HT7bR (Homo sapiens, UniProt P34969); assay: Radioligand binding assay, [3H]-5-CT displacement; details: read-out: Ki 5-HT7; HEK293 cell membranes, 0.6 nM [3H]-5-CT, 37 °C 1 h
Sequence of human 5-HT7bR (P34969 1-432 limits assumed): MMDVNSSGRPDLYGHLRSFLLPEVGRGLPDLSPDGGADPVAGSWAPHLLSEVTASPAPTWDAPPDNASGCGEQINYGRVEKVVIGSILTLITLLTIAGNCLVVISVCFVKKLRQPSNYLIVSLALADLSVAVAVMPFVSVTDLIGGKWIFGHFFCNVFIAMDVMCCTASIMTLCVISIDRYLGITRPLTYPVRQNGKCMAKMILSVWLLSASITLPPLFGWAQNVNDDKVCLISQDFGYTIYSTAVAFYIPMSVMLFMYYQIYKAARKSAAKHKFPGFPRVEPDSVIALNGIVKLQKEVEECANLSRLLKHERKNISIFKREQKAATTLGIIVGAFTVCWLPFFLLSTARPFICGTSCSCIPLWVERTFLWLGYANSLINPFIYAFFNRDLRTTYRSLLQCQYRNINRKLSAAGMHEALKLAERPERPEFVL

5-HT1AR = details: affinity toward 5-HT1AR; cited from earlier work

Sequence of human 5-HT2AR (P28223 whole entry): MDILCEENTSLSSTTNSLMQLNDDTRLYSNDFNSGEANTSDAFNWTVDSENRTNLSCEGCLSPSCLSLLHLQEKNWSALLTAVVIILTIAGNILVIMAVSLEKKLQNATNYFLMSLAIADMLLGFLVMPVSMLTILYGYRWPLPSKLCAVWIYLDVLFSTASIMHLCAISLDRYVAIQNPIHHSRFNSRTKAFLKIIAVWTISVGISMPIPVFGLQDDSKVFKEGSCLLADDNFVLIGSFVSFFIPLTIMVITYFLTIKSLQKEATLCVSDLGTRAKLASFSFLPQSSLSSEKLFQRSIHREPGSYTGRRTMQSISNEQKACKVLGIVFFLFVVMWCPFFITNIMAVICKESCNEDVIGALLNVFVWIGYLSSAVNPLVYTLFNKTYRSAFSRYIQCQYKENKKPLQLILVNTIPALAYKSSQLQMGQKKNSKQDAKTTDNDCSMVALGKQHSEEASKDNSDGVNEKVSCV

| SMILES | Ki (human 5-HT2AR) | Ki (human 5-HT6R) | Ki (human 5-HT7bR) | Ki (5-HT1AR) |
| --- | --- | --- | --- | --- |
| COC(=O)c1ccc(C2c3c(-c4ccccc4O)n[nH]c3C(=O)N2Cc2ccncc2)cc1 (stereo not shown) [D174-0581] | 3.75 µM | 13.5 µM | 6.48 µM |  |
| COc1ccccc1N1CCN(CCCCNC(=O)C23CC4CC(C2)C(C4)C3)CC1 [NBUMP, 4-[4-(1-noradamantanecarboxamido)butyl]-1-(2-methoxyphenyl)piperazine] |  |  |  | 0.0001 µM |
